Values of other authors, collected in patent US20260256672A1, “COMPOSITION COMPRISING SKIN CARE ACTIVE INGREDIENT OR CELLULOSE COMPOUND” (L'OREAL, priority 2022, published 2026).

Settings: base-ten logarithm of apparent octan-1-ol/water partition coefficient

Compound	Log P
CC(O)C[C@H]1OC[C@@H](O)[C@H](O)[C@H]1O (stereo partly drawn) [Hydroxypropyl Tetrahydropyrantriol, C-beta-D-xylopyranoside-2-hydroxpropane]	−1.5
NC[C@H]1CC[C@H](C(=O)O)CC1 [Tranexamic Acid]	−1.6
NC(=O)c1cccnc1 [Niacinamide]	−0.37
O=C1O[C@H]([C@@H](O)CO)C(O)=C1O[C@H]1O[C@H](CO)[C@@H](O)[C@H](O)[C@H]1O [Ascorbyl Glucoside]	−3.4
